Assay results reported in patent US20050282818A1, “Ubiquitin ligase inhibitors” (Rigel Pharmaceuticals, Inc., priority 2004, published 2005).

Experiments:
UACC-257 cells = assay: Cell proliferation PAD assay, UACC-257; assay type: cell-based; conditions: Homo sapiens, UACC257 cells, 6pt, 48 hours
Experimental: (§1) Cell lines used are available from American Type Culture Collection (ATCC), for example, cell cultures containing A549 (ATCC# CCL-185), HeLa (ATCC# CCL-2), HCT116 ATTC# CCL-247), and H1299 (ATCC# CRL-5803) cells were maintained in T175 flasks following the ATCC recommended media and handling procedures. […] A 20,000 cells/ml solution was made for plating. Cells were plated in black Packard 96 well plates by placing 100 μl per well (2,000 cells per well). […] The definitions of the cell types used are as follows: A549 is lung carcinoma; HI 299 is non-small cell lung carcinoma; HI 155 is non-small cell lung carcinoma; AsPC-1 is pancreatic adenocarcinoma; Caov-3 is ovarian adenocarcinoma; COLO 205 is colorectal adenocarcinoma; DLD-1 colorectal adenocarcinoma; HCT116 is colorectal carcinoma; DU 145 is prostate carcinoma; ES-2 is ovarian clear cell carcinoma; H460 is large cell lung carcinoma; HELA is cervical adenocarcinoma; MIA PaCa-2 is pancreatice carcinoma; OVCAR-3 is ovarian adenocarcinoma; OVCAR8 is ovarian carcinoma; PC3 is prostate adenocarcinoma; SK-OV-3 is ovarian adenocarcinoma; SU86.86 is pancreatic carcinoma; TOV-21G is avarian clear cell carcinoma; U2OS is bone osteosarcoma; is ASPC-I is pancreatic adenocarcinoma; BXPC-3 is pabcreatic adenocarcinoma; HL60 is promyeloblast promyelocytic leukemia; K562 is bone marrow chronic myelogenous leukemia; L1210 is mouse lymphocytic leukemia; MOLT3 is T lymphoblast acute lymphoblastic leukemia; MOLT4 is T lymphoblast acute lymphoblastic leukemia; SW620 is colorectal adenocarcinoma; THP-1 is monocyte acute monocytic leukemia; U937 is histiocytic lymphoma; and UACC-257 is melanoma.
(§2) Compounds and additional media were added 24 hours after cell plating. […] All compound testing was done in duplicate using 6.3 fold dilutions starting with 10 mM. […] Taxol and at least one additional control were run on all plates. Three microliters of the compound master plate were added to deep well blocks containing 750 μl of RPMI media. One hundred microliters were transferred from the compound/media deep well blocks to the plated cells resulting in a 500 fold dilution of the compounds. Cells were grown at 37° C., 5% CO2 for 48 hours.
(§3) Cells to be analyzed by photography were fixed and stained. One hundred microliters of media were removed and 100 μl of 9.3% formamide was added to each well. Plates were left on the benchtop for 45 minutes. A staining solution containing 1.55 μl of 1 mg/ml DAPI added to 18.75 ml PBS was warmed for 15 minutes at 37° C. The cells were aspirated prior to washing with 100 μl of PBS. Seventy microliters of PBS were aspirated and 170 μl of the DAPI solution were added to each well of fixed cells. Plates were left at room temperature for one hour then aspirated and washed twice with 100 μl of PBS. The stained cells were left at 4° C. for a minimum of 16 hours before photographic analysis with Array Scan II (Cellomics). Analysis of the photographic images to determine numbers of live cells (proliferation), apoptotic cells and dead cells, were according to the methods described in U.S. Utility patent application Ser. No. 10/652,440, which incorporated herein in its entirety.

OVCAR8 cells = assay: Cell proliferation PAD assay, OVCAR8; assay type: cell-based; conditions: Homo sapiens, OVCAR-8, 6pt, 48 hours
Experimental: as §1, §2, §3

ROC1/CUL1 = target: T1, ROC1/CUL1 (Homo sapiens, UniProt P62877+Q13616); assay: ROC1/CUL1 ubiquitin ligase assay (SCF assay); assay type: biochemical
T1 construct: made in house
How it was run: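 His-ROC1/CUL1 (100 ng/well) with E1 (5 ng/well), UbcH5c E2 (25 nl/well) and Flag-ubiquitin (100 ng) on nickel-coated plates; the reaction solution held Tris pH 7.5, MgCl2, DTT and 2.5 mM ATP. Compounds were added and the reaction ran 1 h at RT. Bound ubiquitin was read by anti-Flag/HRP luminescence, giving IC50 across compound concentrations.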

U2OS cells = assay: Cell proliferation PAD assay, U2OS; assay type: cell-based; conditions: Homo sapiens, 6pt, 48 hours
From the text: Table 3 illustrates the inhibitory activity of the compounds of the invention determined by the PAD assay described above in a number of cell types. Apoptosis was not
as §1
Compounds and additional media were added 24 hours after cell plating. A compound master plate was created with concentrations 500 times greater than the final concentration added to the cells. All compound testing was done in duplicate using 6.3 fold dilutions starting with 10 mM. All outside wells (and 4 internal wells) were DMSO controls. Taxol and at least one additional control were run on all plates. Three microliters of the compound master plate were added to deep well blocks containing 750 μl of RPMI media. One hundred microliters were transferred from the compound/media deep well blocks to the plated cells resulting in a 500 fold dilution of the compounds. Cells were grown at 37° C., 5% CO2 for 48 hours.
as §3

T1 sequence (P62877 whole entry): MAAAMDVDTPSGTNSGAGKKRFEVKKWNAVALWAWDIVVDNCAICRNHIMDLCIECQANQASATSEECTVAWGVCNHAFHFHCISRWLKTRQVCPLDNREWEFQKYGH
T1 sequence (Q13616 whole entry): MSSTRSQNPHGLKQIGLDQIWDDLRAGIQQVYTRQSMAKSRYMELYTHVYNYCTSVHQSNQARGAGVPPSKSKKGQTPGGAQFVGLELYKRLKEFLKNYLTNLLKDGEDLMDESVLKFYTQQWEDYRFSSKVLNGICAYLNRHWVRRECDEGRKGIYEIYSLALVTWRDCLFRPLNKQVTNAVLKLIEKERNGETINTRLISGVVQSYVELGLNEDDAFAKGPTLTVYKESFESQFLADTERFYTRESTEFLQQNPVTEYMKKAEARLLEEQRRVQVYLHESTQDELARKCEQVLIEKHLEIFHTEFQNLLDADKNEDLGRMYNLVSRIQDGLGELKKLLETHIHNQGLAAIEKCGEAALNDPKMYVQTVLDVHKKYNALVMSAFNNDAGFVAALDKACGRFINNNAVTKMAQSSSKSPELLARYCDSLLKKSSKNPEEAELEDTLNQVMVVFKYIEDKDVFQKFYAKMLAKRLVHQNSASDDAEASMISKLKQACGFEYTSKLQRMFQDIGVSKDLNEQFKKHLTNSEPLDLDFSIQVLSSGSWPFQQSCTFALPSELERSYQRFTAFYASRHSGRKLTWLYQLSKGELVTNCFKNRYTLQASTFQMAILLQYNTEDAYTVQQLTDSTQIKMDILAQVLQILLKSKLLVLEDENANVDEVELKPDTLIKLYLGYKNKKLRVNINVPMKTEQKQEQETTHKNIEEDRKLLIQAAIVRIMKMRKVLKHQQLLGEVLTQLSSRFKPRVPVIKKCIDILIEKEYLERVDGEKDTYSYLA

SMILES	IC50 (OVCAR8 cells) [µM]	IC50 (ROC1/CUL1) [µM]	IC50 (U2OS cells) [µM]	IC50 (UACC-257 cells) [µM]
O=C(c1ccc(F)cc1)C1CCN(c2ccc([N+](=O)[O-])c3nonc23)CC1 [compound 142, (4-fluorophenyl)[1-(7-nitro-2,1,3-benzoxadiazol-4-yl)piperidin-4-yl]methanone]	1 to 20			1 to 20
O=[N+]([O-])c1ccc(N2CCN(c3cc(C(F)(F)F)ccn3)CC2)c2nonc12 [compound 90, 4-nitro-7-{4-[4-(trifluoromethyl)pyridin-2-yl]piperazin-1-yl}-2,1,3-benzoxadiazole]	≥ 20			≥ 20
N#CC1(c2ccccc2)CCN(c2ccc([N+](=O)[O-])c3nonc23)CC1 [compound 141, 1-(7-nitro-2,1,3-benzoxadiazol-4-yl)-4-phenylpiperidine-4-carbonitrile]	≥ 20			≥ 20
O=[N+]([O-])c1ccc(N2CCC(O)(c3ccc(Cl)cc3)CC2)c2nonc12 [compound 159, 4-(4-chlorophenyl)-1-(7-nitro-2,1,3-benzoxadiazol-4-yl)piperidin-4-ol]	1 to 20			≥ 20
O=S(=O)(Nc1cccc2nonc12)c1ccc(Oc2ncc(C(F)(F)F)cc2Cl)cc1 [compound 78, N-2,1,3-benzoxadiazol-4-yl-4-{[3-chloro-5-(trifluoromethyl)pyridin-2-yl]oxy}benzenesulfonamide]	1 to 20			1 to 20
O=[N+]([O-])c1ccc(Sc2cccc3cccnc23)c2nonc12 [compound 5, 8-[(7-Nitro-2,1,3-benzoxadiazol-4-yl)thio]quinoline]	< 1			< 1
Cc1ccc(N2CCN(c3ccc([N+](=O)[O-])c4nonc34)CC2)cc1C [compound 140, 4-[4-(3,4-dimethylphenyl)piperazin-1-yl]-7-nitro-2,1,3-benzoxadiazole]	1 to 20			1 to 20
CCOC(=O)c1cc(C#N)c(C)nc1N1CCN(c2ccc([N+](=O)[O-])c3nonc23)CC1 [compound 153, ethyl 5-cyano-6-methyl-2-[4-(7-nitro-2,1,3-benzoxadiazol-4-yl)piperazin-1-yl]nicotinate]	≥ 20			≥ 20
O=[N+]([O-])c1ccc(Oc2ccc(S(=O)(=O)Nc3cccc4nonc34)cc2Cl)c(C(F)(F)F)c1 [compound 114, N-2,1,3-benzoxadiazol-4-yl-3-chloro-4-[4-nitro-2-(trifluoromethyl)phenoxy]benzenesulfonamide]	1 to 20			1 to 20
O=S(=O)(Nc1cccc2nsnc12)c1ccc(Oc2ccccc2)cc1 [compound 94, N-2,1,3-benzothiadiazol-4-yl-4-phenoxybenzenesulfonamide]	1 to 20			1 to 20
O=[N+]([O-])c1ccc(N2CCN(c3ncccc3C(F)(F)F)CC2)c2nonc12 [compound 148, 4-nitro-7-{4-[3-(trifluoromethyl)pyridin-2-yl]piperazin-1-yl}-2,1,3-benzoxadiazole]	1 to 20			1 to 20
O=[N+]([O-])c1ccc(N2CCN(c3ccc(O)cc3)CC2)c2nonc12 [compound 146, 4-[4-(7-nitro-2,1,3-benzoxadiazol-4-yl)piperazin-1-yl]phenol]	1 to 20			1 to 20
O=[N+]([O-])c1ccc(Oc2c(Cl)cc(S(=O)(=O)Nc3cccc4nsnc34)cc2Cl)c(Cl)c1 [compound 73, N-2,1,3-benzothiadiazol-4-yl-3,5-dichloro-4-(2-chloro-4-nitrophenoxy)benzenesulfonamide]	≥ 20			≥ 20
CC1CC(C)CN(c2ccc([N+](=O)[O-])c3nonc23)C1 (centres unmarked) [compound 144, 4-(3,5-dimethylpiperidin-1-yl)-7-nitro-2,1,3-benzoxadiazole]	≥ 20			≥ 20
Cc1ccc(Cl)cc1N1CCN(c2ccc([N+](=O)[O-])c3nonc23)CC1 [compound 145, 4-[4-(5-chloro-2-methylphenyl)piperazin-1-yl]-7-nitro-2,1,3-benzoxadiazole]	≥ 20			≥ 20

Now from value to compound, other results behind:

IC50 (OVCAR8 cells) [µM]	IC50 (ROC1/CUL1) [µM]	IC50 (U2OS cells) [µM]	SMILES	IC50 (UACC-257 cells) [µM]
	≥ 20		N#Cc1ccc(N2CCN(S(=O)(=O)c3c(Cl)ccc4nonc34)CC2)nc1 [compound 209, 6-{4-[(5-chloro-2,1,3-benzoxadiazol-4-yl)sulfonyl]piperazin-1-yl}nicotinonitrile]	
	≥ 20		CC1CC(C)CN(S(=O)(=O)c2ccc(Cl)c3nonc23)C1 (centres unmarked) [compound 192, 4-chloro-7-[(3,5-dimethylpiperidin-1-yl)sulfonyl]-2,1,3-benzoxadiazole]	
	≥ 20		O=S(=O)(Nc1ccc(F)c(F)c1)c1ccc(Cl)c2nonc12 [compound 262, 7-chloro-N-(3,4-difluorophenyl)-2,1,3-benzoxadiazole-4-sulfonamide]	
	≥ 20		O=S(=O)(Nc1cccc(F)c1)c1ccc(Cl)c2nonc12 [compound 263, 7-chloro-N-(3-fluorophenyl)-2,1,3-benzoxadiazole-4-sulfonamide]	
		< 1	COC(=O)c1ccc(NS(=O)(=O)c2ccc(F)c3nonc23)cc1 [compound 167, methyl 4-{[(7-fluoro-2,1,3-benzoxadiazol-4-yl)sulfonyl]amino}benzoate]	
1 to 20			O=[N+]([O-])c1ccc(Sc2nc3ccccc3s2)c2nonc12 [compound 158, 4-(1,3-benzothiazol-2-ylthio)-7-nitro-2,1,3-benzoxadiazole]	1 to 20
	≥ 20		N#CC1(c2ccccc2)CCN(S(=O)(=O)c2ccc(O)c3nonc23)CC1 [compound 199, 1-[(7-hydroxy-2,1,3-benzoxadiazol-4-yl)sulfonyl]-4-phenylpiperidine-4-carbonitrile]	
		< 1	O=S(=O)(Oc1ccc(N2CCN(S(=O)(=O)c3ccc(Cl)c4nonc34)CC2)cc1)c1ccc(Cl)c2nonc12 [compound 171, 4-{4-[(7-chloro-2,1,3-benzoxadiazol-4-yl)sulfonyl]piperazin-1-yl}phenyl 7-chloro-2,1,3-benzoxadiazole-4-sulfonate]	
	≥ 20		CC(=O)N1CCN(S(=O)(=O)c2c(Sc3cccc4cccnc34)ccc3nonc23)CC1 [compound 214, 8-({4-[(4-acetylpiperazin-1-yl)sulfonyl]-2,1,3-benzoxadiazol-5-yl}thio)quinoline]	
	≥ 20		Cc1cc(C)cc(-c2cccc3nonc23)c1 [compound 285, 4-(3,5-Dimethylphenyl)-2,1,3-benzoxadiazole]	
	≥ 20		O=S(=O)(c1ccc(Sc2ccc(O)cc2)c2nonc12)N1CCC(Oc2ncccn2)CC1 [compound 226, 4-[(7-{[4-(pyrimidin-2-yloxy)piperidin-1-yl]sulfonyl}-2,1,3-benzaxadiazol-4-yl)thio]phenol]	
1 to 20			O=[N+]([O-])c1ccc(N2CCN(c3ncc(C(F)(F)F)cc3Cl)CC2)c2nonc12 [compound 315, 4-{4-[3-chloro-5-(trifluoromethyl)pyrindin-2-yl]piperazin-1-yl}-7-nitro-2,1,3-benzoxadiazole]	≥ 20
